The record followed here is US8129371B2, “Thienopyrimidine and pyrazolopyrimidine compounds and their use as mTOR kinase and PI3 kinase inhibitors” (Wyeth LLC, priority 2007, dated 2012).

Like-named read-outs stand apart in the source and are kept apart here.

For test [1], the target named is T1, Human mTOR (FLAG-TOR) (Homo sapiens, UniProt P42345).
T1 construct: FLAG
In words: Human mTOR kinase assay with purified enzyme, DELFIA format. It counts as biochemical. The procedure, abridged: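 Purified FLAG-mTOR in HEPES pH 7.4 buffer with 10 mM MnCl2 was preincubated with inhibitor and reacted 2 h at room temperature with His6-S6K substrate, then stopped with EDTA/EGTA. Phospho-T389 S6K detected by DELFIA with Eu-labelled antibody (40 ng/mL) after plate capture; inhibition computed from signal.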

The target in test [2] is T2, PI3K (Homo sapiens, UniProt P42336).
T2 construct: PI3 Kinase α IC50; other: PI3 Kinase α; other: PI3 Kinase α isoform, fluorescence polarization
Description: Fluorescence polarization assay for PI3K. Format: biochemical. The procedure, abridged:
(§1)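 PI3K was preincubated with compound (final DMSO 1%), and the reaction was started with PIP2/ATP substrate and run 30–60 min. It was stopped with a detector mix giving 10 nM red probe and 70 nM GST-GRP.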
(In general: Polarisation of emitted light reports the rotation of a fluorescent probe.)

In test [3] the target is T3, PI3K (Homo sapiens, UniProt P48736).
T3 construct: PI3 Kinase γ IC50; other: PI3 Kinase γ; other: PI3 Kinase γ isoform, fluorescence polarization
Description: Fluorescence polarization assay for PI3K. Format: biochemical. In a few lines:
as §1

Test [4] concerns breast line MDA468. In words: In vitro cell culture growth assay (MTS), MDA468. It counts as cell-based. To be noted: Homo sapiens, 72 h, MDA468 cells, three days after drug treatment. The procedure, abridged: (§2)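 Following a one-day attachment period, cells received inhibitors for 3 days. MTS metabolism by viable cells was quantified at 490 nm absorbance and converted to percent of same-plate vehicle control growth.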

Test [5] deals with prostate line LNCap. In words: In vitro cell culture growth assay (MTS), LNCap. The note with it: Homo sapiens, 72 h, LNCap cells, three days after drug treatment. Format: cell-based. In a few lines: as §2
[6] abbreviates: purified human mTOR enzyme, DELFIA format.
The mark [7] stands for this setting: PI3 Kinase α isoform, fluorescence polarization, read-out: PI3 Kinase α IC50.
The mark [8] stands for this setting: PI3 Kinase γ isoform, fluorescence polarization, read-out: PI3 Kinase γ IC50.
Setting [9] is: PI3 Kinase α, read-out: PI3 Kinase α IC50.
Setting [10] is: PI3 Kinase γ, read-out: PI3 Kinase γ IC50.

T3 sequence (P48736 whole entry, canonical isoform): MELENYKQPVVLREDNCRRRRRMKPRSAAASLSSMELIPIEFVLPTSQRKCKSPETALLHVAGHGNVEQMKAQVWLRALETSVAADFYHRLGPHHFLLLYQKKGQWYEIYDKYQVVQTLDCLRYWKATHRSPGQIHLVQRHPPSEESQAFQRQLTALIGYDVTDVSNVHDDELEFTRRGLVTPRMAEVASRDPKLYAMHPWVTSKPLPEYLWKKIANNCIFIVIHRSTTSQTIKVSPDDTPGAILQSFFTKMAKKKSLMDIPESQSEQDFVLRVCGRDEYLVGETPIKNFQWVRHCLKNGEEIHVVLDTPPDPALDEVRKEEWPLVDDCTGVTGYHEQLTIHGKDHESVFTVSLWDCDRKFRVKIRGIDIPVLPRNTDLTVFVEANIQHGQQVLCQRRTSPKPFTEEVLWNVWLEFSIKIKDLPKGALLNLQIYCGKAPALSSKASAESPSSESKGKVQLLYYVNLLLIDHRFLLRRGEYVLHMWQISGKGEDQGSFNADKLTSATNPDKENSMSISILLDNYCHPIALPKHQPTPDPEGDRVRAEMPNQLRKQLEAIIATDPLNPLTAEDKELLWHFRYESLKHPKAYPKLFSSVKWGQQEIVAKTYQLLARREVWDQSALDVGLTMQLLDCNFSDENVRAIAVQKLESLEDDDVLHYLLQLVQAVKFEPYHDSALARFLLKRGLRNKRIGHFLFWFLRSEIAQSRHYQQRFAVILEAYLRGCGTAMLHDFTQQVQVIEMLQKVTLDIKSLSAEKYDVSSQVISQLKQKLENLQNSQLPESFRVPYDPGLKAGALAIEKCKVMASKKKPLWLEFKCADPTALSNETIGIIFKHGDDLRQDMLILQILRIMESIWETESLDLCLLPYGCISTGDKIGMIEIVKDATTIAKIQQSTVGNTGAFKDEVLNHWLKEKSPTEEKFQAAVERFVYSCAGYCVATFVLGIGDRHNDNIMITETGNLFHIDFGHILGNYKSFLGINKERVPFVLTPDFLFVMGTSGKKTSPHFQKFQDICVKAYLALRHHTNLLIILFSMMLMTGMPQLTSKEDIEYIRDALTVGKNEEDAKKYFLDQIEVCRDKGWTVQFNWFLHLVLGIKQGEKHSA
T2 sequence (P42336 whole entry, canonical isoform): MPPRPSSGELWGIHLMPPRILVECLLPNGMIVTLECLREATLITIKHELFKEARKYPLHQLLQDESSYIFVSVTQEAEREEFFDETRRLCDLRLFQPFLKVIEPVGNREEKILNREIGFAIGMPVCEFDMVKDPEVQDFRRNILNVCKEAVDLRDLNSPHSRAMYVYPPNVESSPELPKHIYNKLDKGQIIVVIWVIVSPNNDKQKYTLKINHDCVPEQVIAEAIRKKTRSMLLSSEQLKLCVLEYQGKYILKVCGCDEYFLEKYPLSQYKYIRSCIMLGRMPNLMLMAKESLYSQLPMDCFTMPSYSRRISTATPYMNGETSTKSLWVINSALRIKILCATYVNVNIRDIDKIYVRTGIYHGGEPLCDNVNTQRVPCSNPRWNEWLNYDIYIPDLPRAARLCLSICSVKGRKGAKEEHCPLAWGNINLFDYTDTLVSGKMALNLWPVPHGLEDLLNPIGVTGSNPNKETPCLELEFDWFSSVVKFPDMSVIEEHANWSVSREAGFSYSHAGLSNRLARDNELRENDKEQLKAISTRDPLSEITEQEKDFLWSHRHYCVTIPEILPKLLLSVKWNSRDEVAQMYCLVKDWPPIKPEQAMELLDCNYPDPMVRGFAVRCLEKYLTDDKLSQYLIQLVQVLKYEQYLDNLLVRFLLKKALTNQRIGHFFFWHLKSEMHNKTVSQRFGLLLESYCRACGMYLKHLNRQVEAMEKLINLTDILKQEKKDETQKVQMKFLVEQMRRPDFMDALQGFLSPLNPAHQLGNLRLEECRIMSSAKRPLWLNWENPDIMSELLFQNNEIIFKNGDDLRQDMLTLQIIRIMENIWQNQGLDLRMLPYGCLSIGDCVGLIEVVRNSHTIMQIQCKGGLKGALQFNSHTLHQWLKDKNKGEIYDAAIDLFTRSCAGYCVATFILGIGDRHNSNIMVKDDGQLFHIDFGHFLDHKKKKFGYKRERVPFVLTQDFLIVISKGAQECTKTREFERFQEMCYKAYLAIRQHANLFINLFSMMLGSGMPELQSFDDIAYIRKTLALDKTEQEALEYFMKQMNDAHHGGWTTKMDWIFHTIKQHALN

On to `CN1CCN(c2ccc(NC(=O)Nc3ccc(-c4nc(N5CC6CCC(C5)O6)c5cnn(C6CCC7(CCCO7)CC6)c5n4)cc3)cc2)CC1` (single isomer, unassigned) [Example 313, 1-[4-(4-methylpiperazin-1-yl)phenyl]-3-(4-{4-(8-oxa-3-azabicyclo[3.2.1]oct-3-yl)-1-[(5r,8r)-1-oxaspiro[4.5]dec-8-yl]-1H-pyrazolo[3,4-d]pyrimidin-6-yl}phenyl)urea], for which the IC50 (usually the point on the concentration scale where inhibition reaches its midpoint) in test [1] (setting [6]) was determined as 0.000365 µM; in test [2] (setting [7]) it was 0.581 µM; in test [3] (setting [8]) it was 1.45 µM; in test [4] it was 0.015 µM; in test [5] (LNCaP), 0.001 µM.
With `Cn1ncc2c(N3CC4CCC(C3)O4)nc(-c3ccc(NC(=O)Nc4ccc(S(C)(=O)=O)cc4)cc3)nc21` [Example 239, 1-{4-[1-methyl-4-(8-oxa-3-azabicyclo[3.2.1]oct-3-yl)-1H-pyrazolo[3,4-d]pyrimidin-6-yl]phenyl}-3-[4-(methylsulfonyl)phenyl]urea], the IC50 in test [1] was found to be 0.000108 µM; in test [2] (setting [9]) it was 0.064 µM; in test [3] (setting [10]) it was 0.44 µM; in test [4], 0.004 µM; in test [5] (LNCaP), 0.001 µM.
In the same order, the values of `O=C(Nc1ccc(-c2nc(N3CC4CCC(C3)O4)c3cnn(CCO)c3n2)cc1)Nc1ccc(N2CCOCC2)nc1` [Example 206, 1-{4-[1-(2-hydroxyethyl)-4-(8-oxa-3-azabicyclo[3.2.1]oct-3-yl)-1H-pyrazolo[3,4-d]pyrimidin-6-yl]phenyl}-3-(6-morpholin-4-ylpyridin-3-yl)urea] are 0.0007 µM, 0.469 µM, 11.8 µM, 0.12 µM and 0.19 µM.
Regarding `O=C(Nc1ccc(-c2nc(N3CC4CCC(C3)O4)c3sccc3n2)cc1)Nc1cccnc1` [Example 412, 1-{4-[4-(8-oxa-3-azabicyclo[3.2.1]oct-3-yl)thieno[3,2-d]pyrimidin-2-yl]phenyl}-3-pyridin-3-ylurea], the concentration for half-maximal inhibition (IC50) in test [1] (setting [6]) was 0.00028 µM; in test [2] (setting [7]) it was 0.119 µM; in test [3] (setting [8]), 2.36 µM; in test [4], 0.072 µM; in test [5] (LNCaP) it was 0.027 µM.
As to `CNC(=O)Nc1ccc(-c2nc(N3CC4CCC(C3)O4)c3cnn(C(C)(C)C)c3n2)cc1` [Example 93], the IC50 was 0.00041 µM in test [1]; 0.202 µM in test [2] (setting [9]); above 10 µM in test [3] (setting [10]); 0.17 µM in test [4]; 0.023 µM in test [5] (LNCaP).
In the same order, the values of `Cn1ncc2c(N3CC4CCC(C3)O4)nc(-c3ccc(NC(=O)Nc4ccc(N)cc4)cc3)nc21` [Example 234, 1-(4-aminophenyl)-3-{4-[1-methyl-4-(8-oxa-3-azabicyclo[3.2.1]oct-3-yl)-1H-pyrazolo[3,4-d]pyrimidin-6-yl]phenyl}urea] are 0.000355 µM, 0.162 µM, 1.1 µM, 0.011 µM and 0.002 µM.
On the same counts, the results for `CN1CCN(c2ccc(NC(=O)Nc3ccc(-c4nc(N5CC6CCC(C5)O6)c5cnn(CCC#N)c5n4)cc3)cc2)CC1` [Example 220, 1-{4-[1-(2-cyanoethyl)-4-(8-oxa-3-azabicyclo[3.2.1]oct-3-yl)-1H-pyrazolo[3,4-d]pyrimidin-6-yl]phenyl}-3-[4-(4-methylpiperazin-1-yl)phenyl]urea] are 0.00048 µM, 0.074 µM, 1.68 µM, 0.01 µM and 0.004 µM.
For the compound `O=C(NCCF)Nc1ccc(-c2nc(N3CC4CCC(C3)O4)c3sccc3n2)cc1` [Example 408, 1-(2-fluoroethyl)-3-{4-[4-(8-oxa-3-azabicyclo[3.2.1]oct-3-yl)thieno[3,2-d]pyrimidin-2-yl]phenyl}urea], the IC50 in test [1] (setting [6]) is 0.00061 µM; in test [2] (setting [7]), 0.825 µM; in test [3] (setting [8]), above 10 µM; in test [4], 0.53 µM; in test [5] (LNCaP), 0.087 µM.
On to `CN(C)c1ccc(NC(=O)Nc2ccc(-c3nc(N4CC5CCC(C4)O5)c4cnn(C)c4n3)cc2)cc1` [Example 233, 1-[4-(dimethylamino)phenyl]-3-{4-[1-methyl-4-(8-oxa-3-azabicyclo[3.2.1]oct-3-yl)-1H-pyrazolo[3,4-d]pyrimidin-6-yl]phenyl}urea], for which the IC50 in test [1] was 0.000865 µM; in test [2] (setting [9]), 0.604 µM; in test [3] (setting [10]) it was above 10 µM; in test [4], 0.14 µM; in test [5] (LNCaP) it was 0.04 µM.
On to `CN1CCN(c2ccc(NC(=O)Nc3ccc(-c4nc(N5CC6CCC(C5)O6)c5cnn(CCC#N)c5n4)cc3)cn2)CC1` [Example 222, 1-{4-[1-(2-cyanoethyl)-4-(8-oxa-3-azabicyclo[3.2.1]oct-3-yl)-1H-pyrazolo[3,4-d]pyrimidin-6-yl]phenyl}-3-[6-(4-methylpiperazin-1-yl)pyridin-3-yl]urea], for which the half-maximal inhibitory concentration (IC50) was 0.000405 µM in test [1]; 0.143 µM in test [2] (setting [9]); 2.61 µM in test [3] (setting [10]); 0.008 µM in test [4]; 0.001 µM in test [5] (LNCaP).
For the compound `O=C(Nc1ccccc1)Nc1ccc(-c2nc(N3CC4CCC(C3)O4)c3cnn(C4CCN(Cc5cccnc5)CC4)c3n2)cc1` [Example 17, 1-(4-{4-(8-oxa-3-azabicyclo[3.2.1]oct-3-yl)-1-[1-(pyridin-3-ylmethyl)piperidin-4-yl]-1H-pyrazolo[3,4-d]pyrimidin-6-yl}phenyl)-3-phenylurea], the IC50 is 0.00061 µM in test [1]; 0.222 µM in test [2] (setting [9]); 1.86 µM in test [3] (setting [10]); 0.01 µM in test [4]; 0.0008 µM in test [5] (LNCaP).
`O=C1CCC(n2ncc3c(N4CC5CCC(C4)O5)nc(-c4ccc(NC(=O)NC5CC5)cc4)nc32)CC1` [Example 401, 1-cyclopropyl-3-{4-[4-(8-oxa-3-azabicyclo[3.2.1]oct-3-yl)-1-(4-oxocyclohexyl)-1H-pyrazolo[3,4-d]pyrimidin-6-yl]phenyl}urea]: the IC50 was 0.000445 µM in test [1] (setting [6]); 2.11 µM in test [2] (setting [7]); above 10 µM in test [3] (setting [8]); 0.01 µM in test [4]; 0.001 µM in test [5] (LNCaP).
On the same counts, the results for `O=C(Nc1ccc(-c2nc(N3CC4CCC(C3)O4)c3cnn(C4CCC(N5CCCC5)CC4)c3n2)cc1)Nc1cccnc1` (stereo not drawn) [Example 332, 1-{4-[4-(8-oxa-3-azabicyclo[3.2.1]oct-3-yl)-1-(4-pyrrolidin-1-ylcyclohexyl)-1H-pyrazolo[3,4-d]pyrimidin-6-yl]phenyl}-3-pyridin-3-ylurea] are 0.00245 µM, 0.351 µM, 2.76 µM, 0.9 µM and 0.37 µM.
For `CCNC(=O)Nc1ccc(-c2nc(N3CC4CCC(C3)O4)c3cnn(CC(F)(F)F)c3n2)cc1` [Example 3, 1-ethyl-3-{4-[4-(8-oxa-3-azabicyclo[3.2.1]oct-3-yl)-1-(2,2,2-trifluoroethyl)-1H-pyrazolo[3,4-d]pyrimidin-6-yl]phenyl}urea], the IC50 in test [1] was 0.00038 µM; in test [2] (setting [9]) it was 3.75 µM; in test [3] (setting [10]), above 10 µM; in test [4], below 0.027 µM; in test [5] (LNCaP), below 0.027 µM.
On to `CCn1ncc2c(N3CC4CCC(C3)O4)nc(-c3ccc(NC(=O)Nc4ccncc4)cc3)nc21` [Example 48, 1-{4-[1-ethyl-4-(8-oxa-3-azabicyclo[3.2.1]oct-3-yl)-1H-pyrazolo[3,4-d]pyrimidin-6-yl]phenyl}-3-pyridin-4-ylurea], for which the IC50 in test [1] was 0.00016 µM; in test [2] (setting [9]), 0.134 µM; in test [3] (setting [10]), 1.12 µM; in test [4], below 0.0008 µM; in test [5] (LNCaP), below 0.0008 µM.
With `CC(C)n1ncc2c(N3CC4CCC(C3)O4)nc(-c3ccc(NC(=O)Nc4ccccc4)cc3)nc21` [Example 147, 1-{4-[1-isopropyl-4-(8-oxa-3-azabicyclo[3.2.1]oct-3-yl)-1H-pyrazolo[3,4-d]pyrimidin-6-yl]phenyl}-3-phenylurea], the IC50 was 0.000185 µM in test [1]; 0.03 µM in test [2] (setting [9]); 0.475 µM in test [3] (setting [10]); 0.018 µM in test [4]; below 0.001 µM in test [5] (LNCaP).
For `CN(C)c1cccc(OC(=O)Nc2ccc(-c3nc(N4CC5CCC(C4)O5)c4cnn(CC(F)(F)F)c4n3)cc2)c1` [Example 256, 3-(dimethylamino)phenyl {4-[4-(8-oxa-3-azabicyclo[3.2.1]oct-3-yl)-1-(2,2,2-trifluoroethyl)-1H-pyrazolo[3,4-d]pyrimidin-6-yl]phenyl}carbamate], the IC50 in test [1] was 0.195 µM; in test [2], above 10 µM; in test [3], above 10 µM; in test [4], 18 µM; in test [5] it was 3.5 µM.
Regarding `CNC(=O)Nc1ccc(-c2nc(N3CC4CCC(C3)O4)c3cnn(C4CCN(C(=O)OC(C)C)CC4)c3n2)cc1` [Example 66, isopropyl 4-[6-{4-[(methylcarbamoyl)amino]phenyl}-4-(8-oxa-3-azabicyclo[3.2.1]oct-3-yl)-1H-pyrazolo[3,4-d]pyrimidin-1-yl]piperidine-1-carboxylate], the IC50 in test [1] was 0.00022 µM; in test [2] (setting [9]), 2.02 µM; in test [3] (setting [10]) it was above 10 µM; in test [4], 0.084 µM; in test [5] (LNCaP), 0.006 µM.
